# Patent publication US20250099485A1, “COMPOSITIONS FOR PROMOTING HAIR GROWTH” (ESTETRA SRL, priority 2021, published 2025)
# Legend:
# DP fibroblasts = experiment: Hair follicle organ culture: DP fibroblast emigration; type: cell-based, human; conditions: vs vehicle
# Procedure: (§1) 12-44 full-length frontotemporal hair follicles (HF) were obtained from four human female donors >50 years old. Donors were caucasian female subjects […], respectively (Donor 1: 12 temporal anagen HFs; Donor 2: 29; Donor 3: 44; Donor 4: 32). After microdissection from skin as described (Edelkamp et al., Methods Mol Biol, 2020, 2154:105-119; and Langan et al., Exp Dermatol, 2015, December; 24(12):903-1), HFs were placed in adequate culture medium and allowed a 24 h rest period to allow them to recover from the trauma of microdissection. Test substance (either vehicle (0.3% EtOH) or E4 at concentrations of 30 μM, 3 μM or 300 nM) was added to the medium at the end of the 24 h. Total culturing time was 5-7 days depending on the studied parameters and the experimental question. The experimental design for the hair follicle organ culture experiment is depicted in FIG. 12. Longer term culture experiments may be used to analyze the capacity to delay the onset of catagen.
# The DP resident fibroblasts are subjected to migration in the transition between anagen and catagen phase (Hawkshaw et al., Journ of Invest Dermatol, 2015, 135(8):2129-2132). In catagen onset, DP fibroblasts emigrate to the dermal cup through the DP stalk, whereas at anagen induction, they immigrate back in the DP. Quantifying the number of DP fibroblasts present in the DP stalk and in the DP (Kloepper et al., Exp Dermatol, 2010, March; 19(3):305-12) is therefore a direct readout for anagen induction or catagen promotion. K 15 expression—Stem cells.
# [1] = test system: Normal Human Dermal Fibroblasts (NHDFs); experiment: Colonization of acellular area (IBIDI gap closure), fibroblasts; type: cell-based; conditions: for NHDF Migration (+MMC) (colonization of acellular area vs ethanol control): presence of mitomycin C, 6 h and 24 h contact, cell gives time of significant effect
# Procedure: The study consists in an in vitro assay aiming to evaluate the properties of E4 and E2 at 4 concentrations each on keratinocytes and fibroblasts. In this assay, the measurement of the colonization of a standard acellular surface generated from a confluent monolayer of cells using a dedicated culture device (IBIDI chamber) is performed. The assay is performed in absence and in presence of a proliferation inhibitor to focus on cell proliferation and migration or on migration only, respectively.
# Normal Human foreskin-derived Dermal Fibroblast (NHDFs, ATCC) cells were grown in phenol-free Dulbecco's Modified Eagle Medium (DMEM, ThermoFisher Scientific) supplemented with 10% of Foetal Bovine Serum (FBS, ThermoFisher Scientific), L-glutamine and antibiotics. The cells were maintained in a humidified incubator at 37° C. with a 5% CO2 atmosphere.
# Cells were plated in 2-well silicone inserts with a defined cell free gap (IBIDI chambers; IBIDI GmbH, 80209) that was previously inserted on 12-well culture plates. This culture device allows to create a standardized 500 μm±100 μm cell free gap for monitoring cell colonization. 24 h after seeding, when the culture reached high confluency, cells in the insert were treated, or not, with mitomycin C (MMC) at 10 μg/ml during 2 h. After these 2 hours, the insert was removed, and cells were treated with E2 or E4 in presence or not of MMC for additional 2 h. Then, if appropriate, the culture medium was removed and cells were treated with E2 or E4 for 22 h, in absence of MMC.
# For the assay, keratinocytes were plated in Epilife medium without HKGS and all the treatments were performed in this medium. Fibroblasts were plated in DMEM medium containing only 2.5% of FBS and the treatments were performed in absence of FBS.
# E2 and E4 were applied at 4 concentrations each (10^−7M, 10^−8M, 10^−9M, 10^−10M). In parallel, cells were treated with a positive control (HKGS 1% for human keratinocytes and PDGF-BB at 10 ng/ml for human fibroblasts).
# To monitor cell colonization and to evaluate the gap closure rate, pictures of the gap were taken after different times: at time 0 h, corresponding to the beginning of the treatment with E2 or E4 and to the removal of the culture insert, at time 6 h and at time 24 h (corresponding to the end of the treatments with E2 or E4). Pictures were taken with a microscope Zeiss (Axiover 25-10× objective) and with a camera Invenio2EIII (DeltaPix—Lux-Optic). The colonized areas were quantified from the pictures by the use of the WimAsis platform—WimScratch software. For each insert, 3 pictures were taken at each time. As each condition was performed in triplicates, it means a total of 9 pictures per condition and per time point of acquisition
# [2] = test system: human hair follicles (HF); experiment: Hair follicle organ culture: hair shaft elongation ex vivo; type: cell-based; conditions: 300 nM, 3 μM, 30 μM, n=4 female donors
# Procedure: as §1, with “Longer term culture experiments may be used to analyze the capacity to delay the onset of catagen.” left out
# To determine the HF length, each HF was measured from the end of the bulb connective tissue sheath to the end of the distal outer root sheath (ORS), using a digital light microscope at 50× magnification (VHX 900 Keyence Corporation, Osaka, Japan) and the affiliated software (Edelkamp et al., Methods Mol Biol, 2020, 2154:105-119; and Langan et al., Exp Dermatol, 2015, December; 24(12):903-1). […] Elongation is expressed as millimeters of growth and/or as percentage elongation from the baseline measurement.
compound,measurement,setting,value
"C[C@]12CC[C@@H]3c4ccc(O)cc4CC[C@H]3[C@@H]1[C@@H](O)[C@@H](O)[C@@H]2O [E4, 1,3,5 (10)-estratrien-3,15alpha,16alpha,17beta-tetrol]",density of cells in the inductive dermal cup,"DP fibroblasts; 300 nM, 3 μM, 30 μM",no significant impact
same,total number of cells in the DP stalk,DP fibroblasts; 300 nM,significantly reduced
same,total number of cells in the DP stalk,DP fibroblasts; 3 μM,significantly reduced
same,density of cells in the DP stalk,DP fibroblasts; all concentrations,tendentially decreased
same,density of cells in the DP,DP fibroblasts; all tested concentrations,did not strikingly affect
same,NHDF Migration (+MMC) (colonization of acellular area vs ethanol control),[1]; 10^−7M,significantly increase the colonization of the acellular area
same,NHDF Migration (+MMC) (colonization of acellular area vs ethanol control),[1]; 10^−8M,significantly increase the colonization of the acellular area
same,NHDF colonization of the cell-free area,"[1]; absence of MMC, all four concentrations",not able to significantly increase
same,hair shaft production,[2],did not modify
